Measured values from patent US20140287419A1, “Compositions Having Dicamba Decarboxylase Activity and Methods of Use” (priority 2013, published 2014).
“Also recorded” adds a separate entry of the source.

Columns and labels:
[1] = tested on: Arabidopsis ecotype Columbia (Col-O); assay: Arabidopsis root growth inhibition assay; settings: 6 days
Description: Phytotoxicity of other major dicamba decarboxylated products was evaluated using Arabidopsis root growth inhibition assay. 4-chloro-3-methoxy phenol was purchased from Biogene Organics, Inc. (catalog number U06-642-79). 2,5-dichloro phenol was purchased from Sigma-Aldrich (catalog number D70007). Briefly, seeds of Arabidopsis ecotype Columbia (Col-O) were surface sterilized with 70% (v/v) ethanol for 5 minutes and 10% (v/v) bleach for 15 minutes. After being washed three times with distilled water, the seeds were germinated on 1× Murashige and Skoog (MS) medium with a pH of 5.7, 3% (w/v) sucrose, and 0.8% (w/v) agar. After incubation for 3.5 days, the seedlings were transferred to 1× MS medium containing B5 vitamin, 3% (w/v) sucrose, 1.2% (w/v) agar, and filter sterilized compounds was added to the media at 60° C. The concentrations of compounds including dicamba were 0 μM, 1.0 μM, and 10 μM. The seedlings were placed vertically, and the temperature maintained at 23° C. to allow root growth along the surface of the agar, with a photoperiod of 16 h of light and 8 h of dark.
After 6 days on media, root growth was evaluated. In wild type Arabidopsis, root growth inhibition is expected from auxin herbicide treatment.

[2] = tested on: Soybean seeds of a Pioneer elite germplasm; assay: Soybean germination phytotoxicity test; settings: for soybean seed germination and growth: 16 days

Row | SMILES | Arabidopsis root growth ([1]; 1.0 uM in MS medium) | Arabidopsis root growth ([1]; 10 uM in MS medium) | soybean seed germination and growth ([2]; 1 μM in germination media) | soybean seed germination and growth ([2]; 10 μM in germination media) | soybean seed germination and growth ([2]; 100 μM in germination media) | soybean germination ([2]; FIG. 2 legend, no concentration given)
1 | Oc1cc(Cl)ccc1Cl [2,5-dichloro phenol] | not affected; also recorded: did not have any effect on the growth of Arabidopsis roots | not affected; also recorded: did not have any effect on the growth of Arabidopsis roots | – | – | – | –
2 | COc1cc(Cl)ccc1Cl [2,5-DCA, 2,5-dichloro anisole] | – | – | seed germination and growth were normal | seed germination and growth were normal | did not have any obvious impact on soybean germination and growth | not affected
